Test results: article PMC7887271, “Fast acting allosteric phosphofructokinase inhibitors block trypanosome glycolysis and cure acute African trypanosomiasis in mice” (Nature Communications, 2021)
Where two headings read alike, the source gives them in different places.

How the values were obtained:
T. b. brucei Lister 427 = assay: Mouse model of stage 1 HAT; type: in vivo, T. b. brucei in female CD-1 mice; conditions: three oral 50 mg kg^−1 doses 2 h apart daily over 2 days, n = 5
Procedure: T. b. brucei Lister 427 infection is cured by 1-day dosing. […] These parasites have a doubling time of ~6 h and infection with 1 × 10^5 parasites usually requires euthanasia of mice within 4–5 days of infection in the absence of drug treatment. Drug efficacy is determined by taking regular blood samples from infected mice and checking microscopically for parasitaemia. In this model of acute infection a single surviving parasite should proliferate to reach detectable levels in ~5 days and a 30-day period of no parasite detection is considered as cure.
For the mouse model of stage 1 HAT T. b. brucei Lister 427 parasites (1 × 10^5) were injected into a single donor female CD-1 mouse (University of Edinburgh; 6–8 weeks old) intraperitoneally in D-PBS containing 10 mM glucose. Parasites for subsequent stage 1 HAT infection were obtained from whole blood via cardiac puncture, under gaseous isoflurane anaesthesia. Parasites (1 × 10^3) harvested from the donor mouse were then injected into the peritoneum of female CD-1 mice (University of Edinburgh; 6–8 weeks old) in D-PBS containing 10 mM glucose. One day after infection, animals were either left untreated (n = 3) or dosed orally by gavage (n = 5) with CTCB compound in Cremophor EL: EtOH: D-PBS (30:10:60 v/v; Supplementary Methods 6.3).
T. b. brucei Lister 427 parasites (1 x 10^5) were injected into a single donor female CD-1 mouse (University of Edinburgh; 6-8 weeks old) intraperitoneally in D-PBS containing 10 mM glucose. Parasites for subsequent Stage 1 HAT infection were obtained from whole blood via cardiac puncture, under gaseous isoflurane anaesthesia as described above. Parasites (1 x 10^3) harvested from the donor mouse were then injected into the peritoneum of female CD-1 mice (University of Edinburgh; 6-8 weeks old) in D-PBS containing 10mM glucose. One day after infection, animals were either left untreated (n=3) or dosed orally by gavage (n=5) with CTCB compound in Cremophor EL: EtOH : D-PBS (30:10:60 v/v). The veterinary trypanocidal drug pentamidine isethionate (2.5 mg/kg for 4 consecutive days after infection) was administered intraperitoneally as control (n=3) for parasite elimination. Mice were monitored daily for parasitaemia day 1 post-infection onwards. Trypanosomes were quantified in blood samples from the tail vein by microscopy as previously described (12). Animals were sacrificed on the day that parasites were first detected in blood samples. (Supplementary Figure 11)

[1] = Pharmacokinetic studies in mice (IV and PO); type: in vivo, female CD-1 mice; conditions: female, CD-1, plasma, mouse; for AUC(0-inf): read-out: AUC (infinity)
Procedure: PK parameters for the lead compounds were determined using three mice per data point (Supplementary Methods 6.1).
Blood samples were collected from terminal cardiac puncture at 0.08 (IV only), 0.25, 0.5, 1 (PO only), 2, 4, 8 and 24 hour time points. The whole blood was centrifuged to obtain plasma. Brains were also collected following cardiac perfusion from both sets of animals at 2 hours. Analysis of the biological samples was carried out by the company Selcia. Plasma proteins were precipitated by addition of PBS (1 volume) followed by 3 volumes of acetonitrile containing internal standard (verapamil). Following filtration through a protein precipitation plate the eluent was dried under nitrogen and re-suspended in mobile phase prior to analysis. Individual brains were homogenised in PBS and diluted to 10% w/v and divided into aliquots consisting of brain homogenate (1 volume, 0.3 ml) and 3 volumes (0.9 ml) of acetonitrile containing internal standard. Samples were centrifuged and supernatants removed and taken through a protein precipitation plate alongside an appropriate standard. Eluents were dried under nitrogen and re-suspended in mobile phase prior to analysis. Eluents were analysed by LC-MS/MS using a Phenomenex Gemini NX column (C18,30 x 2.1 mm, 3 micron). Analysis of the data was carried out using PK solutions software.

CN(C)CCn1ccc2c(ccn2Cc2ccc(F)c(Br)c2)c1=O [CTCB-508, 1-[(3-Bromo-4-fluorophenyl)methyl]-5-[2-(dimethylamino)ethyl] pyrrolo[3,2-c]pyridin-4-one]
outcome of treatment (T. b. brucei Lister 427): either complete clearance or a significant increase in survival | AUC(0-inf) ([1]; IV 1 mg kg^−1): 349 ng·h/mL | clearance ([1]; IV 1 mg kg^−1, read-out: CL/kg (converted)): 45 mL/min/kg | half-life ([1]; IV 1 mg kg^−1, read-out: Elimination t1/2 (converted)): 0.7 h | Vd ([1]; IV 1 mg kg^−1, read-out: Vd (area)): 2.9 L/kg | Cmax ([1]; PO 10 mg kg^−1): 1330 ng/mL | Tmax ([1]; PO 10 mg kg^−1): 2 h | AUC(0-inf) ([1]; PO 10 mg kg^−1): 4170 ng·h/mL | bioavailability ([1]; PO 10 mg kg^−1 vs IV 1 mg kg^−1, read-out: Bioavailability (F%)): 119%
